From patent US20070254951A1, “HIGH CONCENTRATION DINOTEFURAN FORMULATIONS” (priority 2006, published 2007)
Read-outs that look alike come from different tables or passages of the source.

Tests used:
[1] = formulation of Example 9
From the text: The formulation of Example 9 was stored under variable temperatures up to 2 years to determine the stability of dinotefuran in solution.

[2] = From the text: It is also desirable that the resulting formulation be stable. […] This is important because these conditions can be met in commerce. The crystallization would reduce the amount of insecticide in solution and reduce the efficacy of the solution applied to the animal.

## CNC(=N[N+](=O)[O-])NCC1CCOC1 (stereo not drawn) [Dinotefuran, 1-{(tetrahydro-3-furanyl)methyl}-2-nitro-3-methylguanidine]
[1]; 40° F., 1 Mo
  Dinotefuran concentration in solution (average): 15.03 percent by weight
[1]; 110° F., 3 Mo
  Dinotefuran concentration in solution (average): 15.33 percent by weight
[1]; 130° F., 1 Mo
  Dinotefuran concentration in solution (average): 15.22 percent by weight
[1]; F/T, 1 Mo
  Dinotefuran concentration in solution (average): 15.05 percent by weight
[1]; INITIAL
  Dinotefuran concentration in solution (average): 15.43 percent by weight
[1]; RT (25° C.), 3 Mo
  Dinotefuran concentration in solution (average): 15.17 percent by weight
[1]; RT, 1 Yr
  Dinotefuran concentration in solution (average): 15.24 percent by weight
[1]; RT, 2 Yrs
  Dinotefuran concentration in solution (average): 15.735 percent by weight
[1]; RT, 6 Mo
  Dinotefuran concentration in solution (average): 15.06 percent by weight
[2]; methoprene at about 0.8% and below, compared to a similar formulation without methoprene
  increase in concentration by including methoprene: ~50%
[2]; phenyl methanol formulation, no crystal formation at 0° F. during a 1 month period
  increase in concentration achievable by including pyriproxyfen at low levels: ~50%
[2]; typically, 0° F.
  dinotefuran concentration that will crystallize at 0° F. within a few days: over 8%
